Values joined by “and” are separate entries in the source; they are usually repeats but may differ in a detail not shown here. Equal entries are not always repeated. Where two headings read alike, the source gives them in different places.
Columns and labels:
mSCD3 = target: T1, mSCD3 (Mus musculus, UniProt Q99PL7, V119A); experiment: Conversion of saturated fatty acids to Δ9 monounsaturated fatty acids in ole1 yeast L8-14C expressing mSCD3 (GLC); format: cell-based; set-up: Cloning of the full-length human and mouse SCD cDNAs: The full coding region of human SCDs; expressed in transfected cells; host or cells: Saccharomyces cerevisiae L8-14C (ole1 disruptant), vector p426GPD
T1 sequence (Q99PL7 1-359 V119A): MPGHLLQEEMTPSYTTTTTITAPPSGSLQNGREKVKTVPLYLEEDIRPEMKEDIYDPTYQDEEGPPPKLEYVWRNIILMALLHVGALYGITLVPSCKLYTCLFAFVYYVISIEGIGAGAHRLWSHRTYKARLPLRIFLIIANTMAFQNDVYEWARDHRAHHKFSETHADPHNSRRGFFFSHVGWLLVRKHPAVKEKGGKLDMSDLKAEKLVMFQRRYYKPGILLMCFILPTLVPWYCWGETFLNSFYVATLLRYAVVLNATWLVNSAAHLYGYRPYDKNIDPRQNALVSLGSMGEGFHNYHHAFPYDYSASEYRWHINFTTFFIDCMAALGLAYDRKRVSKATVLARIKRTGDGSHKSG

hSCD5 = target: T2, hSCD5 (Homo sapiens, UniProt Q86SK9); experiment: Conversion of saturated fatty acids to Δ9 monounsaturated fatty acids in ole1 yeast L8-14C expressing hSCD5 (GLC); format: cell-based; set-up: Cloning of the full-length human and mouse SCD cDNAs: The full coding region of human SCDs; expressed in transfected cells; host or cells: Saccharomyces cerevisiae L8-14C (ole1 disruptant), vector p426GPD; conditions: for % conversion of fatty acid to Δ9 monounsaturated fatty acid: endogenous fatty acid, L8-14C transformant, YPD lacking unsaturated fatty acids, 3 days
T2 sequence (Q86SK9 1-330): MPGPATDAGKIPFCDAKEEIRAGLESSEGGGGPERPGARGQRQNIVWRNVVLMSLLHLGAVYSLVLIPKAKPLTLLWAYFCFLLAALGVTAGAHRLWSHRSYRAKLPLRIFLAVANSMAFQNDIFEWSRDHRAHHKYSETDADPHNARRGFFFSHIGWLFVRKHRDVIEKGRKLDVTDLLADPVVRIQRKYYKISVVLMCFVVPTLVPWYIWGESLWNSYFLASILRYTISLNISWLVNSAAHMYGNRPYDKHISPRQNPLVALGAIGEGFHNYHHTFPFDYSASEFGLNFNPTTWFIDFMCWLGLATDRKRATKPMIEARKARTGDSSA
Text: (§1) Functional Analysis: The p426GPD constructs harboring either human or mouse SCDs were transformed into Saccharomyces cerevisiae strain L8-14C (provided by Professor Charles Martin, Division of Life Sciences, Department of Cell Biology and Neuroscience, Rutgers University, Nelson Laboratories), which contains a disruption of the yeast Δ9-desaturase gene ole1 and requires unsaturated fatty acids for growth (Stukey, J. E. et al. (1990) J Biol Chem 265, 20144-20149), by using a Lithium acetate standard methods (Elble, R. (1992) Biotechniques 13, 18-20). The transformed yeast cells were plated onto a synthetic dextrose medium containing 1% tergitol NP-40, 0.5 mM oleic acid, and 0.5 mM palmitoleic acid but lacking uracil. To test the genetic complementation of the mutant yeast strain, transformed yeast cells were plated onto YPD (Yeast Extract/Peptone/Dextrose) medium lacking unsaturated fatty acids. Plates were incubated at 30° C. for 3 days.
(§2) Fatty acid analysis: Yeast cells were grown in liquid YPD medium lacking unsaturated fatty acids for 3 days. Cells were pelleted and washed twice with water, followed by suspension in 0.5 ml of 2M NaOH in methanol. The mixture was then heated to 80° C. for 1 h and acidified with formic acid. Fatty acids were extracted according to Bligh & Dyer's method and trans-methylated with 1 ml of 14% BF3 in methanol (Sigma). The resulting fatty acid methyl esters were extracted with hexane and analyzed by gas-liquid chromatography (GLC) (Miyazaki, M. et al. (2001) J Biol Chem 276, 39455-39461; and Elble, R. (1992) Biotechniques 13, 18-20). The double bond positions of the monounsaturated fatty acid pyrrolidide derivatives were analyzed by tandem GC-MS as described in Miyazaki, M. et al. (2002) J Lipid Res 43, 2146-2154, incorporated by reference in its entirety. Exogenous saturated fatty acids (0.2 mM) were added into YPD in presence of 1% Tergitol NP-40 (Sigma).

mSCD2 = target: T3, mSCD2 (Mus musculus, UniProt P13011); experiment: Conversion of saturated fatty acids to Δ9 monounsaturated fatty acids in ole1 yeast L8-14C expressing mSCD2 (GLC); format: cell-based; set-up: Cloning of the full-length human and mouse SCD cDNAs: The full coding region of human SCDs; expressed in transfected cells; host or cells: Saccharomyces cerevisiae L8-14C (ole1 disruptant), vector p426GPD; conditions: for % conversion of fatty acid to Δ9 monounsaturated fatty acid: endogenous fatty acid, L8-14C transformant, YPD lacking unsaturated fatty acids, 3 days; for conversion of exogenous saturated fatty acid to Δ9 monounsaturated fatty acid: exogenous fatty acid 0.2 mM, 1% tergitol NP-40, yeast cultured 2 days (FIG. 2)
T3 sequence (P13011 1-358): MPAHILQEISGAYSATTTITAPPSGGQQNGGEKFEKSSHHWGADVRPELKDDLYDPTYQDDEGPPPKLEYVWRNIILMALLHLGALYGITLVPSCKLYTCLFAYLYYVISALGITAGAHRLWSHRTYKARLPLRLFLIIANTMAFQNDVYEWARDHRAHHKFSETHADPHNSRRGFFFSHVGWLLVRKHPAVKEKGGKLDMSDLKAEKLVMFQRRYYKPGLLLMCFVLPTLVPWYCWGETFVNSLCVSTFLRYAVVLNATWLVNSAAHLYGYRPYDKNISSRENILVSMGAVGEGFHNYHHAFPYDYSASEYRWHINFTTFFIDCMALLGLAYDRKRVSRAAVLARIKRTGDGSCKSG

mSCD1 = target: T4, mSCD1 (Mus musculus, UniProt P13516); experiment: Conversion of saturated fatty acids to Δ9 monounsaturated fatty acids in ole1 yeast L8-14C expressing mSCD1 (GLC); format: cell-based; set-up: Cloning of the full-length human and mouse SCD cDNAs: The full coding region of human SCDs; expressed in transfected cells; host or cells: Saccharomyces cerevisiae L8-14C (ole1 disruptant), vector p426GPD; conditions: for % conversion of fatty acid to Δ9 monounsaturated fatty acid: endogenous fatty acid, L8-14C transformant, YPD lacking unsaturated fatty acids, 3 days; for conversion of exogenous saturated fatty acid to Δ9 monounsaturated fatty acid: exogenous fatty acid 0.2 mM, 1% tergitol NP-40, yeast cultured 2 days (FIG. 2)
T4 sequence (P13516 1-355): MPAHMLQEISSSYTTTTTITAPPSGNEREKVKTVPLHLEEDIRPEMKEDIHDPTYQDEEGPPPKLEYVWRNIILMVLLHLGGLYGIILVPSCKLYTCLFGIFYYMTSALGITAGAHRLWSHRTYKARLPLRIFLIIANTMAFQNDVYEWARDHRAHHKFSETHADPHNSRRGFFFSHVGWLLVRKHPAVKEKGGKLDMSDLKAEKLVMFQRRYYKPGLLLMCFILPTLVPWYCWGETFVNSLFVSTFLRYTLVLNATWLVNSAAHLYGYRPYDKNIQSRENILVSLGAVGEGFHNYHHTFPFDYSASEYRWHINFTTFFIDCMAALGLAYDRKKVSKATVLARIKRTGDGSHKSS

mSCD4 = experiment: Conversion of saturated fatty acids to Δ9 monounsaturated fatty acids in ole1 yeast L8-14C expressing mSCD4 (GLC); format: cell-based, mouse; conditions: for % conversion of fatty acid to Δ9 monounsaturated fatty acid: endogenous fatty acid, L8-14C transformant, YPD lacking unsaturated fatty acids, 3 days; for conversion of exogenous saturated fatty acid to Δ9 monounsaturated fatty acid: exogenous fatty acid 0.2 mM, 1% tergitol NP-40, yeast cultured 2 days (FIG. 2)
Text: as §1
as §2, with “Cells” for “Fatty acid analysis: Yeast cells were grown in liquid YPD medium lacking unsaturated fatty acids for 3 days. Cells”

hSCD1 = target: T5, hSCD1 (Homo sapiens, UniProt O00767); experiment: Conversion of saturated fatty acids to Δ9 monounsaturated fatty acids in ole1 yeast L8-14C expressing hSCD1 (GLC); format: cell-based; set-up: Cloning of the full-length human and mouse SCD cDNAs: The full coding region of human SCDs; expressed in transfected cells; host or cells: Saccharomyces cerevisiae L8-14C (ole1 disruptant), vector p426GPD; conditions: for % conversion of fatty acid to Δ9 monounsaturated fatty acid: endogenous fatty acid, L8-14C transformant, YPD lacking unsaturated fatty acids, 3 days; for conversion of exogenous saturated fatty acid to Δ9 monounsaturated fatty acid: exogenous fatty acid 0.2 mM, 1% tergitol NP-40, yeast cultured 2 days (FIG. 2)
T5 sequence (O00767 1-359): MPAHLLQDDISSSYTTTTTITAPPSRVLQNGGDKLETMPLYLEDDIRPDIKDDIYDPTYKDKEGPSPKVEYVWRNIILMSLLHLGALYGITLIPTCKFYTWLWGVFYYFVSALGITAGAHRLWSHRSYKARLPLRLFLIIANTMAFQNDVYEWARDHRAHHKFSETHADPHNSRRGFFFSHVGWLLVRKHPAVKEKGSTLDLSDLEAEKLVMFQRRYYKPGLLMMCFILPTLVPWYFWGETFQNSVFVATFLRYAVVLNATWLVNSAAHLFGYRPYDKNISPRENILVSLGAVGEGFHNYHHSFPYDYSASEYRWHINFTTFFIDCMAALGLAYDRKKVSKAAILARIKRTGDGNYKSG

[1] = exogenous fatty acid 0.2 mM, 1% tergitol NP-40, yeast cultured 2 days (FIG. 2)
[2] = yeast transformant, endogenous fatty acids

Compound	conversion of exogenous saturated fatty acid to Δ9 monounsaturated fatty acid (mSCD2)	conversion of exogenous saturated fatty acid to Δ9 monounsaturated fatty acid (mSCD1)	conversion of exogenous saturated fatty acid to Δ9 monounsaturated fatty acid (mSCD4)	conversion of exogenous saturated fatty acid to Δ9 monounsaturated fatty acid (hSCD1)	conversion of exogenous saturated fatty acid to Δ9 monounsaturated fatty acid (hSCD5; [1])	also measured
CCCCCCCCCCCC(=O)O [12:0, lauric acid]						conversion of exogenous saturated fatty acid to Δ9 monounsaturated fatty acid (mSCD3): 14%; conversion of exogenous saturated fatty acid to Δ9 monounsaturated fatty acid (hSCD5): did not desaturate
CCCCCCCCCCCCCCCC(=O)O [16:0]						% conversion of fatty acid to Δ9 monounsaturated fatty acid (mSCD2): 51.4%; % conversion of fatty acid to Δ9 monounsaturated fatty acid (mSCD1): 36.4%; % conversion of fatty acid to Δ9 monounsaturated fatty acid (mSCD4): 9.7%; % conversion of fatty acid to Δ9 monounsaturated fatty acid (hSCD1): 43.8%; % conversion of fatty acid to Δ9 monounsaturated fatty acid (hSCD5): 19.9%
CCCCCCCCCCCCCCCCCCCC(=O)O [C20:0, eicosanoic acid]	None of Δ9-desaturase was able to utilize	None of Δ9-desaturase was able to utilize	None of Δ9-desaturase was able to utilize	None of Δ9-desaturase was able to utilize	None of Δ9-desaturase was able to utilize	
CCCCCCCCCCCCCCCCC(=O)O [17:0, heptadecanoic acid]	31%	43%	5.7%	35%	31%	
CCCCCCCCCCCCC(=O)O [13:0, tridecanoic acid]	14%	13%		9%	did not desaturate	
CCCCCCCCCCCCCC(=O)O [14:0, myristic acid]	14%	11%	2.9%	18%	less than 5%	
CCCCCCCCCCCCCCCCCC(=O)O [18:0]						% conversion of fatty acid to Δ9 monounsaturated fatty acid (mSCD2): 77% and 77.3%; % conversion of fatty acid to Δ9 monounsaturated fatty acid (mSCD1): 85% and 84.8%; % conversion of fatty acid to Δ9 monounsaturated fatty acid (mSCD4): 16.8%; % conversion of fatty acid to Δ9 monounsaturated fatty acid (hSCD1): 75.0%; conversion towards 18:0 relative to 16:0 (hSCD1; [2]): 1.7 fold; % conversion of fatty acid to Δ9 monounsaturated fatty acid (hSCD5): 86.6%; conversion of 18:0 to 18:1Δ9 relative to that of 16:0 (hSCD5; [2]): more than 4 fold

From patent publication US20060281071A1, “Stearoyl-CoA desaturase assay” (priority 2005, published 2006)
